Test results from patent US10793580B2, “Substituted pyrazoloazepin-8-ones and their use as phosphodiesterase inhibitors” (LEO Pharma A/S, priority 2016, dated 2020).

The molecules below were run against human PDE4D catalytic domain (Homo sapiens (Human), UniProt Q08499) (assay: PDE4 Assay (TR-FRET, FAM-cAMP cleavage)). Settings: Table 16, Examples 277-296; read-out: PDE4 IC50 range.
Type: biochemical
Method in brief: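 PDE4D catalytic domain (S380-L740) incubated briefly with unlabelled cAMP plus FAM-cAMP and titrated compound. Reaction stopped with binding buffer holding metal-ion nanoparticles that bind AMP phospho groups and Tb donor, and AMP formation read by TR-FRET. IC50 versus controls, reported as ranges (nM).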

Sequence of human PDE4D catalytic domain (Q08499 380-740): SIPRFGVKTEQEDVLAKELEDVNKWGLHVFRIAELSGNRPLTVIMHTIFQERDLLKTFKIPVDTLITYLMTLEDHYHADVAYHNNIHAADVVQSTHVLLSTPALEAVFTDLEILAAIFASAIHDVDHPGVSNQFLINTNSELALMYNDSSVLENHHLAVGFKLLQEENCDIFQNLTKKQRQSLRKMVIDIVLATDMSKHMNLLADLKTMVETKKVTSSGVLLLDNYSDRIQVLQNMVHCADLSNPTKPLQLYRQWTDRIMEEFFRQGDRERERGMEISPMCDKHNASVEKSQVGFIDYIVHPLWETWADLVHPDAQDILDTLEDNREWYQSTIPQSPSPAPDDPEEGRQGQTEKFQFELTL

Row | SMILES | IC50
1 | CCn1nc(C[C@@H](C)COC(=O)c2cocn2)c2c1C(=O)NCC1(CCOCC1)C2 [Example 277, [(2R)-3-(1-ethyl-8-oxo-spiro[6,7-dihydro-4H-pyrazolo[3,4-c]azepine-5,4′-tetrahydropyran]-3-yl)-2-methyl-propyl] oxazole-4-carboxylate] | < 100 nM

Same assay, conditions: human PDE4D catalytic domain (UniProt Q08499 [S380-L740]); 50% inhibition of substrate cleavage; read-out: PDE4 IC50 range

Row | SMILES | IC50
2 | CCn1nc(CC(C)(C)COC(=O)c2ccc(S(=O)(=O)N(C)C)cc2)c2c1C(=O)NCC1(CCOCC1)C2 [Example 208, [3-(1-ethyl-8-oxo-spiro-[6,7-dihydro-4H-pyrazolo-[3,4-c]azepine-5,4′-tetra-hydropyran]-3-yl)-2,2-dimethyl-propyl] 4-(di-methylsulfamoyl)benzoate] | < 100 nM
3 | CCn1nc(CCCCOC(=O)C2CCOC2)c2c1C(=O)NCC1(CCOCC1)C2 (centres unmarked) [Example 265, 4-(1-ethyl-8-oxo-spiro[6,7-dihydro-4H-pyrazolo[3,4-c]azepine-5,4′-tetrahydropyran]-3-yl)butyl tetrahydrofuran-3-carboxylate] | < 100 nM
4 | CCn1nc(CCCOC(=O)c2cnc(C)o2)c2c1C(=O)NCC1(CCOCC1)C2 [Example 241, 3-(1-ethyl-8-oxo-spiro[6,7-dihydro-4H-pyrazolo[3,4-c]azepine-5,4′-tetrahydropyran]-3-yl)propyl 2-methyloxazole-5-carboxylate] | < 100 nM
5 | CCn1nc(CCCOC(=O)c2ccc(C(F)(F)F)cc2)c2c1C(=O)NCC1(CCOCC1)C2 [Example 62, 3-(1-ethyl-8-oxo-spiro[6,7-dihydro-4H-pyrazolo[3,4-c]azepine-5,4′-tetrahydropyran]-3-yl)propyl 4-(trifluoromethyl)benzoate] | < 100 nM
6 | CCn1nc(CCCOC(=O)c2cccc(OC)c2F)c2c1C(=O)NCC1(CCOCC1)C2 [Example 39, 3-(1-ethyl-8-oxo-spiro[6,7-dihydro-4H-pyrazolo[3,4-c]azepine-5,4′-tetrahydropyran]-3-yl)propyl 2-fluoro-3-methoxy-benzoate] | < 100 nM
7 | CCn1nc(CCCOC(=O)c2ccc(OC)cc2F)c2c1C(=O)NCC1(CCOCC1)C2 [Example 38, 3-(1-ethyl-8-oxo-spiro[6,7-dihydro-4H-pyrazolo[3,4-c]azepine-5,4′-tetrahydropyran]-3-yl)propyl 2-fluoro-4-methoxy-benzoate] | < 100 nM
8 | CCn1nc(CCCOC(=O)c2ccc(C#N)c(F)c2)c2c1C(=O)NCC1(CCOCC1)C2 [Example 32, 3-(1-ethyl-8-oxo-spiro[6,7-dihydro-4H-pyrazolo[3,4-c]azepine-5,4′-tetrahydropyran]-3-yl)propyl 4-cyano-3-fluoro-benzoate] | < 100 nM
9 | CCn1nc(C[C@@H](C)COC(=O)c2ccc(S(=O)(=O)N3CCOCC3)cc2)c2c1C(=O)NCC1(CCOCC1)C2 [Example 165, [(2R)-3-(1-ethyl-8-oxo-spiro[6,7-dihydro-4H-pyrazolo[3,4-c]azepine-5,4′-tetrahydropyran]-3-yl)-2-methyl-propyl] 4-morpholinosulfonylbenzoate] | < 100 nM
10 | CCn1nc(CCCCOC(=O)c2cc(C)n(C)n2)c2c1C(=O)NCC1(CCOCC1)C2 [Example 272, 4-(1-ethyl-8-oxo-spiro[6,7-dihydro-4H-pyrazolo[3,4-c]azepine-5,4′-tetrahydro-pyran]-3-yl)butyl 1,5-dimethylpyrazole-3-carboxylate] | < 100 nM
11 | CCn1nc(CCOC(=O)c2ccc(S(C)(=O)=O)cc2)c2c1C(=O)NCC1(CCOCC1)C2 [Example 136, 2-(1-ethyl-8-oxo-spiro-[6,7-dihydro-4H-pyrazolo-[3,4-c]azepine-5,4′-tetra-hydropyran]-3-yl)ethyl 4-methylsulfonylbenzoate] | < 100 nM
12 | CCn1nc(CC(C)(C)COC(=O)c2ccc(C(=O)N3CCCC3)cc2)c2c1C(=O)NCC1(CCOCC1)C2 [Example 221, [3-(1-ethyl-8-oxo-spiro[6,7-dihydro-4H-pyrazolo[3,4-c]azepine-5,4′-tetrahydro-pyran]-3-yl)-2,2-dimethyl-propyl] 4-(pyrrolidine-1-carbonyl)benzoate] | < 100 nM
13 | CCn1nc(CCCOC(=O)c2cc(Cl)ccc2F)c2c1C(=O)NCC1(CCOCC1)C2 [Example 51, 3-(1-ethyl-8-oxo-spiro[6,7-dihydro-4H-pyrazolo[3,4-c]azepine-5,4′-tetrahydropyran]-3-yl)propyl 5-chloro-2-fluoro-benzoate] | < 100 nM
14 | CCn1nc(C[C@@H](C)COC(=O)c2cccc(C(=O)N3CCN(C)CC3)c2)c2c1C(=O)NCC1(CCOCC1)C2 [Example 184, [(2R)-3-(1-ethyl-8-oxo-spiro[6,7-dihydro-4H-pyrazolo[3,4-c]azepine-5,4′-tetrahydropyran]-3-yl)-2-methyl-propyl] 3-(4-methylpiperazine-1-carbonyl)benzoate] | < 100 nM
15 | CCn1nc(CCCOC(=O)c2ccc(C(=O)N3CCOCC3)cc2)c2c1C(=O)NCC1(CCOCC1)C2 [Example 109, 3-(1-ethyl-8-oxo-spiro[6,7-dihydro-4H-pyrazolo[3,4-c]azepine-5,4′-tetrahydropyran]-3-yl)propyl 4-(morpholine-4-carbonyl)benzoate] | < 100 nM
16 | CCn1nc(CCCOC(=O)c2cc(F)cc(C(F)(F)F)c2)c2c1C(=O)NCC1(CCOCC1)C2 [Example 72, 3-(1-ethyl-8-oxo-spiro[6,7-dihydro-4H-pyrazolo[3,4-c]azepine-5,4′-tetrahydro-pyran]-3-yl)propyl 3-fluoro-5-(trifluoromethyl)benzoate] | < 100 nM
17 | CCn1nc(CCCOC(=O)c2ccc(S(C)(=O)=O)cc2)c2c1C(=O)NCC1(CCOCC1)C2 [Example 3, 3-(1-Ethyl-8-oxo-spiro[6,7-dihydro-4H-pyrazolo[3,4-c]azepine-5,4′-tetrahydropyran]-3-yl)propyl 4-methylsulfonylbenzoate] | < 100 nM
